# Test results from patent US6777428B1, “5-HT1f agonist” (Eli Lilly and Company, priority 1999, dated 2004).
# Counter-ions that a name gives are not always drawn.
row,melting point [°C],SMILES
1,181 to 183,CN1CCC(C(=O)c2cccc(NC(=O)c3ccc(F)cc3F)c2)CC1 (as salt: hydrochloride)
2,> 200,CN1CCC(C(=O)c2cccc(NC(=O)c3ccc(O)cc3)c2)CC1 (as salt: hydrochloride)
3,> 225,O=C(Nc1cccc(C(=O)C2CCNCC2)c1)c1ccc(F)cc1 (as salt: hydrochloride)

# Second part, the compound before the results:
row,SMILES,melting point [°C]
1,Cl.Nc1cccc(C(=O)C2CCNCC2)c1,208 to 210
2,CN1CCC(C(=O)c2cccc(NC(=O)c3ccc(F)cc3I)c2)CC1.Cl,> 250
3,CN1CCC(C(=O)c2cccc(NC(=O)c3ccco3)c2)CC1 (as salt: hydrochloride),> 200
4,CN1CCC(C(=O)c2cccc(NC(=O)c3ccncc3)c2)CC1 (as salt: hydrochloride),> 200
